These are literature values, as cited in PMC12675671 (Nature Communications, 2025).

This data set has as its system WT LRRK2.

Each structure is given as a SMILES string.

On to `COc1cc(C(=O)N2CCC(N3CCN(C)CC3)CC2)ccc1Nc1ncc2c(n1)N(C)c1ccccc1C(=O)N2C` [LRRK2-IN-1], for which the “pIC50 (experimental values), WT” value is 8.509.
